Series [1] has as its system Newcastle disease virus (NDV) Miyadera strain. The format is cell-based. The conditions noted are these: HeLa S3 cell; 37° C., 5-7 days; at MDC, 1/2 or 1/4 MDC; vs control.
The nature of series [2]: in vitro. Conditions: human, hela s3 cells.
Series [3] concerns Vaccinia virus Lister strain. Format: cell-based. The conditions noted are these: HeLa S3 cell; 37° C., 5-7 days; at MDC, 1/2 or 1/4 MDC; vs control.
Another series concerns mice. The conditions noted are these: mouse, in vivo, ip.
For series [4], the system named is IPNV (infectious pancreas necrosis virus). In words: Preventing IPN virus in fish. Format: in vivo, rainbow trout. Conditions: 16 ppm water bath 96 hours, 18° C.; for Cumulative number of dying fish: 20 fish. The method, then:
40 Young (4-6 cm in body length) rainbow trout were sensitised by immersion for 3 hours under aeration in 7.5 liters of a water bath containing IPNV (infectious pancreas necrosis virus) which was prepared by diluting to a 1000-fold volume a cell stock of IPNV (virus titer: 10^6.301 TCID50 /ml) cultured in RTG-2 cells. Immediately after this sensitisation, the fish were divided into two groups each comprising 20 fish and each group was placed in two glass vessels containing 50 liters of water, respectively. The first group of fish was the treated group, while the second group of fish was the control group (untreated).
After the first group of fish was placed in the water-containing vessel, L-hydroxyureidomethyl glycine was dissolved in the water to a concentration of 16 ppm. in this vessel, whereupon the fish were treated during 96 hours with the water bath containing the active compound. Thereafter, the active solution of the bath was replaced by fresh water containing no active compound, and the fish were observed daily to count the number of the young fish which fell dead. The active compound was not added to the water in the second vessel containing the second group of fish (control group), although replacement of water was made in the second vessel. In this way, the effect of L-hydroxyureidomethyl glycine in preventing IPNV infection was estimated. All of the tests were conducted in the water at 18° C.

Series [5] deals with vaccinia virus Lister strain. Format: in vivo, mice of the ICR strain. Conditions: subcutaneous, 4 times first day, twice a day days 2-5, 10th day.
Series [6] has as its system Influenza virus A0 /PR-8 strain. Format: in vivo, mice of the ICR strain. The conditions noted are these: 100 mg/kg, intraperitoneal, twice a day for 3 days; mouse lung at 72 hours.
Series [7] relates to Infectious pancrease necrosis virus (IPNV). Format: cell-based.
The nature of series [8]: in vitro. Conditions: rainbow trout, rtg-2 cells.
The test system of a further series is Influenza virus. Format: cell-based.
The next series relates to viruses. The conditions noted are these: cited from earlier work.

The source of these data is patent US4216226A (priority 1977, dated 1980).

SMILES strings stand for the structures. Counter-ions that a name gives are not always drawn. Like-named read-outs stand apart in the source and are kept apart here.

Turning to `N[C@@H](CNC(=O)NO)C(=O)O` [L-Hydroxyureidomethyl glycine], the “Difference of -log TCID50 /ml, NDV” value in [1] is 0.50. In addition, the MCC was greater than 1000 µg/mL in the series “in vitro [2]” and 4000 µg/mL in “in vitro [8]”. Also, the “Difference of -log TCID50 /ml, Vaccinia virus” value in [3] turned out to be 3.50. The “Acute toxicity LD0” value in the series with mice was greater than 3000 mg/kg. In series [4] (67 days, control 10%), this molecule returned a Survival rate of 95%. Also, the “Cumulative number of dying fish” value in [4] (28 days, control 0) was determined as 0; in series [4] (46 days, control 2), 0; in series [4] (55 days, control 13) it was 0; in [4] (67 days, control 18) it was 1. For the same molecule, the entries for the “Percent of inhibition of pock” value in series [5] (25 mg/kg) and in [5] (50 mg/kg) were 33.7% and 48.0%, respectively. In addition, in [6], the “Per cent of Inhibition (virus multiplication, HA units)” value was determined as 65%. For the same molecule, in series [7], the “Difference of -log TCID50 /ml, IPNV” value came out at 4.00.

For the molecule `CP(=O)(O)CC[C@H](N)C(=O)O` [L-Methylphosphinoethyl glycine sodium salt], the “Difference of -log TCID50 /ml, NDV” value in [1] stood at 2.00. For the same molecule, the MCC in “in vitro [2]” was greater than 1000 µg/mL; in the series “in vitro [8]”, 4000 µg/mL. Also, the “Difference of -log TCID50 /ml, Influenza virus (calculated from chick hemagglutination titer)” value in the series with Influenza virus is listed as greater than 7.3.

For the molecule `NC(Cc1ccc(F)cc1)C(=O)O` (stereo not shown) [p-fluoro-phenyl alanine], in the series on viruses, the “antiviral activity (reported)” value is “exhibits an antiviral activity”.
